From patent US12306164B2, “Therapeutic drug for lipid-peroxidation-induced diseases and screening method for therapeutic drugs for lipid-peroxidation-induced diseases” (FUSO PHARMACEUTICAL INDUSTRIES, LTD., priority 2017, dated 2025)
Structures can show the parent of a compound that is named as a salt.

How the values were obtained:
[1] = test system: lipid peroxidation reaction in liposomes (AAPH system); assay: NBD-TEEPO assay in artificial lipid membranes, AAPH system; assay type: biochemical; conditions: AAPH 20 mM, AsA 0-20 μM, after 40 minutes
Experimental: (§1) Probes (NBD-TEEPO compound) (5.0 μM) and liposomes (2.5 mg/mL Egg PC, 0.1 mg/mL DCP) were mixed in phosphate buffer (10 mM, pH 7.4, 0.5% DMSO, 0.5% acetonitrile) at 37° C. AAPH (0-20 mM) or FeSO4 (0-2.0 mM) was added to the mixture, and the lipid peroxidation reaction was started. After 40 minutes in the AAPH system or after 60 minutes in the Fe^2+ system, the fluorescence intensity was measured at an excitation wavelength of 470 nm and a fluorescence wavelength of 530 nm.

HepG2 cells [2] = assay: Intracellular lipid peroxidation inhibition by antioxidants (NBD-TEEPO assay); assay type: cell-based, human; conditions: 200 μM AA or 300 μM tBHP, 50 μM antioxidant, 45 minutes
Experimental: Human hepatoma cells (HepG2 cells) were cultured with DMEM medium (containing 10% FBS, 1% Penicillin-Streptomycin and 1×MEM non-essential amino acids) in a CO2 incubator (37° C., 5% CO2). Passaging was performed when 60-70% subconfluent state was reached. DMEM media (phenol red free, containing 1% Penicillin-Streptomycin) was used for various measurements. HepG2 cells were seeded in a 96-well plate at 10,000 cells/well. The cells were incubated for 24 hours to adhere. AA (200 μM) or tBHP (0 to 300 μM), antioxidant (50 μM), and probe (5.0 μM) were added to the cells in DMEM medium (0.5% DMSO, 0.5% acetonitrile), and after 45 minutes, the fluorescence intensity was measured at an excitation wavelength of 470 nm and a fluorescence wavelength of 530 nm.

HepG2 cells [3] = assay: Secondary screening, Core Library (NBD-TEEPO assay); assay type: cell-based, human; conditions: 50 μM compound, 200 μM AA (45 minutes) or 300 μM tBHP (60 minutes); high activity values in both systems
Experimental: In the screening by the cell-based assay method, activity values were determined from the values of fluorescence intensity measured in each screening using AA or tBHP as a reaction initiator, based on the following expression: Activity value=100(AUCSample−AUCBackground)/(AUCControl−AUCBackground) • AUCSample: Area under the curve calculated from the fluorescence intensity for with reaction initiator and with each compound (n=1) • AUCControl: Area under the curve calculated from fluorescence intensity for with reaction initiator and without each compound • AUCBackground: Area under the curve calculated from fluorescence intensity for without reaction initiator and without each compound
For the compounds, 10 mM 100% DMSO solutions (dispensed at 5.0 µL/well) were provided from Drug Discovery Initiative, the University of Tokyo. 495 μL of DMEM medium for measurement was added, and a 1.0% DMSO solution containing 100 μM of the compound was prepared. This solution was dispensed by 80 μL with Biomek NXP into a measuring plate on which cells were seeded in advance. To the test compound (100 μM 1.0% DMSO), 64 μL of DMEM medium (1.25% acetonitrile) containing 12.5 M NBD-TEEPO compound, and 16 μL of PBS in which AA (2000 μM, 5.0% ethanol) or tBHP (3000 μM) was dissolved were manually dispensed. The final concentration was 50 μM test compound and 200 μM AA or 300 μM tBHP in DMEM medium (0.5% DMSO, 0.5% acetonitrile).
The reaction mixture was mixed at 37° C., and the fluorescence intensity at an excitation wavelength of 470 nm and a fluorescence wavelength of 530 nm was measured over time every 3 minutes. The AUC was calculated from the fluorescence intensity for 45 minutes in the AA-added system or 60 minutes in the tBHP-added system, and the activity value of each test compound was calculated according to the expression described herein.

HepG2 cells [4] = assay: Secondary screening, Core Library (MTT assay); assay type: cell-based, human; conditions: 50 μM compound, 100 μM AA or tBHP, 24 hours
Experimental: As a cell-based screening for examining the cell death inhibitory activity, an assay using human hepatoma-derived HepG2 cells and AA and tBHP as radical initiators is performed, and the cell viability is measured. The activity value is determined from the cell viability value based on the following expression: Activity value=100(ViabilitySample−ViabilityControl(+))/(ViabilityControl(−)−ViabilityControl(+)) • ViabilitySample: Cell viability for with reaction initiator and with each compound (n=1) • ViabilityControl(+): Cell viability for with reaction initiator and with each compound • ViabilityControl(−): Cell viability for without reaction initiator and without each compound
For the compounds, 10 mM 100% DMSO solutions (dispensed at 5.0 µL/well) were provided from Drug Discovery Initiative, the University of Tokyo. 495 μL of DMEM medium for measurement was added, and 1.0% DMSO solution containing 100 μM of the compound was prepared. This solution was dispensed by 80 μL with Biomek NXP into a measuring plate on which cells were seeded in advance. To the test compound (100 μM 1.0% DMSO), 64 μL of DMEM medium, 16 μL of PBS in which AA (1000 μM, 5.0% ethanol) or tBHP (1000 μM) was dissolved were manually dispensed. The final concentration was 5.0 μM NBD-TEEPO compound, 50 μM test compound, and 100 μM AA or tBHP in DMEM medium (0.5% DMSO, 0.5% acetonitrile). After 24 hours, the medium was exchanged, and MTT solution (0.5 mg/mL, 0.5% DMSO) was added. Then, cells were incubated for 24 hours, and the solution was removed. 100 μL of DMSO was added, and the absorbance at 630 nm was measured. The cell viability was calculated according to the expression described herein, with regarding the case without AA or tBHP as 100%.

HepG2 cells [5] = assay: Tertiary screening, Core Library (NBD-TEEPO assay); assay type: cell-based, human; conditions: 50 μM compound, 200 μM AA or 300 μM tBHP
Experimental: The Core Library of Drug Discovery Initiative, the University of Tokyo, includes structural analogs for each compound. Then, secondary screening was also performed for structural analog compounds for each candidate compound in the same manner as Example 13 and the activity values were evaluated.
(§2) Specifically, the nine hit compounds, Compound Nos. 7, 19, 39, 48, 52, 64, 73, 78, 80, of the secondary screening had 5, 2, 4, 6, 6, 5, 5, 10, 2 structural analogs, respectively, thus, a total 45 structural analogs were taken. Then, including the original 9 compounds, a total 54 compounds were subjected to tertiary screening, and the activity values were calculated in the same manner.
(§3) For the evaluation of cytotoxicity, 50 μM antioxidant was added to HepG2 cells in DMEM medium (0.5% DMSO), and after incubation at 37° C. for 72 hours, the cell viability was measured. • 4) The activity values of the two-added systems in each of the assay using NBD-TEEPO and the MTT assay were plotted (FIG. 15C and FIG. 16C).

HepG2 cells [6] = assay: Tertiary screening, Core Library (MTT assay); assay type: cell-based, human; conditions: 50 μM compound, 100 μM AA or tBHP, 24 hours
Experimental: as §2, with “manner. […]” for “manner.”

HepG2 cells [7] = assay: Cytotoxicity evaluation at tertiary screening (MTT, compound alone); assay type: cell-based; conditions: 50 μM compound alone, 72 hours
Experimental: To 1.0×10^4 HepG2 cells, 50 μM compound were added, and cell viability after 72 hours was measured by an MTT assay.
as §3

[8] = not told; cited from earlier work
[9] = test system: lipid peroxidation reaction in liposomes (Fe^2+ system); assay: NBD-TEEPO assay in artificial lipid membranes, Fe2+ system; assay type: biochemical; conditions: FeSO4 1 mM, Eda 0-20 μM, after 60 minutes
Experimental: as §1

O=C1O[C@H]([C@@H](O)CO)C(O)=C1O [AsA, ascorbic acid]
inhibition of NBD-TEEPO fluorescence increase [1]: inhibited the fluorescence increase concentration-dependently

Oc1cc(O)c2c(c1)O[C@H](c1ccc(O)c(O)c1)[C@H](O)C2 [Catechin, (−)-epicatechin]
inhibitory effect on AA- and tBHP-induced fluorescence increase (HepG2 cells [2]): strongest inhibitory effect

CC(Nc1ccc(Nc2ccccc2)cc1)C(=O)Nc1ccc(S(N)(=O)=O)cc1 (centres unmarked) [Compound 7, 2-((4-(Phenylamino)phenyl)amino)-N-(4-sulfamoylphenyl)propanamide]
activity values (lipid peroxidation inhibition) in both AA-added and tBHP-added systems (HepG2 cells [3]): hit compounds

C/C(=N/Nc1nnc(Nc2ccccc2Cl)s1)c1ccccn1 [Compound 19]
inhibition rates (cell death inhibition) in both AA-added and tBHP-added systems (HepG2 cells [4]): high inhibition rates in both systems

CN(C1CC(C)(C)N(O)C(C)(C)C1)S(=O)(=O)CC12CCC(CC1=O)C2(C)C (centres unmarked) [Compound 39, 1-(7,7-Dimethyl-2-oxobicyclo[2.2.1]heptan-1-yl)-N-(1-hydroxy-2,2,6,6-tetramethylpiperidin-4-yl)-N-methylmethanesulfonamide]
inhibition rates (cell death inhibition) in both AA-added and tBHP-added systems (HepG2 cells [4]): high inhibition rates in both systems

COc1cc(/C=C/c2ccc3cccc([N+](=O)[O-])c3n2)cc(OC)c1O [Compound 48, 2,6-Dimethoxy-4-(2-(8-nitroquinolin-2-yl)vinyl)phenol]
activity values (lipid peroxidation inhibition) in both AA-added and tBHP-added systems (HepG2 cells [3]): hit compounds

COC(=O)c1ccc(Nc2ccccc2)c(N)c1 [Compound 52, Methyl 3-amino-4-(phenylamino)benzoate]
inhibition rates (cell death inhibition) in both AA-added and tBHP-added systems (HepG2 cells [4]): high inhibition rates in both systems | lipid peroxidation inhibitory effects (HepG2 cells [5]): high | cell death inhibitory effects (HepG2 cells [6]): high

COC(=O)c1ccc(Nc2ccc(OC)cc2)c(N)c1 [Compound 52-1, Methyl 3-amino-4-((4-methoxyphenyl)amino)benzoate]
lipid peroxidation inhibitory effects (HepG2 cells [5]): high | cell death inhibitory effects (HepG2 cells [6]): high

COC(=O)c1ccc(Nc2cccc(OC)c2)c(N)c1 [Compound 52-3, Methyl 3-amino-4-((3-methoxyphenyl)amino)benzoate]
lipid peroxidation inhibitory effects (HepG2 cells [5]): high | cell death inhibitory effects (HepG2 cells [6]): high

COC(=O)c1ccc(NCc2ccccc2)c(N)c1 [Compound 52-4, Methyl 3-amino-4-(benzylamino)benzoate]
lipid peroxidation inhibitory effects (HepG2 cells [5]): high | cell death inhibitory effects (HepG2 cells [6]): high

CN(C)c1cc2c(cc1N)-c1ccccc1C2 [Compound 64, N^2,N^2-Dimethyl-9H-fluorene-2,3-diamine]
activity values (lipid peroxidation inhibition) in both AA-added and tBHP-added systems (HepG2 cells [3]): hit compounds

NC(=O)c1cccc(-c2ccc3nc(-c4cccc(OCCO)c4)c(NCCN4CCOCC4)n3c2)c1 [Compound 73, 3-(2-(3-(2-Hydroxyethoxy)phenyl)-3-((2-morpholinoethyl)amino)imidazo[1,2-a]pyridin-6-yl)benzamide]
inhibition rates (cell death inhibition) in both AA-added and tBHP-added systems (HepG2 cells [4]): high inhibition rates in both systems

Nc1ccc2c(c1)CCN2c1ccc(OC(F)(F)F)cc1 [Compound 78, 1-(4-(Trifluoromethoxy)phenyl)indolin-5-amine]
inhibition rates (cell death inhibition) in both AA-added and tBHP-added systems (HepG2 cells [4]): high inhibition rates in both systems | lipid peroxidation inhibitory effects (HepG2 cells [5]): high | cell death inhibitory effects (HepG2 cells [6]): high

Cc1cc(C)cc(-n2ccc3ccc(N)cc32)c1 [Compound 78-3, 1-(3,5-Dimethylphenyl)-1H-indol-6-amine]
lipid peroxidation inhibitory effects (HepG2 cells [5]): high | cell death inhibitory effects (HepG2 cells [6]): high

Cc1cc(C)cc(N2CCc3ccc(N)cc32)c1 [Compound 78-4, 1-(3,5-Dimethylphenyl)indolin-6-amine]
lipid peroxidation inhibitory effects (HepG2 cells [5]): high | cell death inhibitory effects (HepG2 cells [6]): high

COc1ccc(-n2ccc3cc(N)ccc32)cc1 [Compound 78-5, 1-(4-Methoxyphenyl)-1H-indol-5-amine]
lipid peroxidation inhibitory effects (HepG2 cells [5]): high | cell death inhibitory effects (HepG2 cells [6]): high

CSc1ccc(-n2ccc3cc(N)ccc32)cc1 [Compound 78-6, 1-(4-(Methylthio)phenyl)-1H-indol-5-amine]
lipid peroxidation inhibitory effects (HepG2 cells [5]): high | cell death inhibitory effects (HepG2 cells [6]): high

Nc1ccc2c(ccn2-c2ccc(OC(F)(F)F)cc2)c1 [Compound 78-8]
lipid peroxidation inhibitory effects (HepG2 cells [5]): high | cell death inhibitory effects (HepG2 cells [6]): high

COc1cc(NS(C)(=O)=O)ccc1Nc1c2ccc(C)cc2nc2c1[nH]c1ccccc12 [Compound 80, N-(3-Methoxy-4-((3-methyl-1-10H-indolo[3,2-b]quinolin-11-yl)amino)phenyl)methanesulfonamide]
activity values (lipid peroxidation inhibition) in both AA-added and tBHP-added systems (HepG2 cells [3]): hit compounds | lipid peroxidation inhibitory effects (HepG2 cells [5]): highest | cytotoxicity (HepG2 cells [7]): extremely high

CN1CC[C@]2(C)c3cc(O)ccc3N(C)[C@H]12 [Compound W, (−)-eseroline fumarate]
permeability to blood-retinal barrier (BRB) [8]: highly permeable

CC1=NN(c2ccccc2)C(=O)C1 [Eda, Edaravone]
inhibition of NBD-TEEPO fluorescence increase [9]: inhibited the fluorescence increase concentration-dependently
